Measured values taken from patent publication US11110102B2, “Antifungal agents used in combination” (Scynexis, Inc., priority 2017, dated 2021).

Assay: Solubility in water
Assay type: physicochemical
Description: Each drug was initially diluted in either sterile, distilled water or in DMSO, depending on whether the drug was water-soluble or water-insoluble, respectively.

CC(C)[C@@H](C)[C@@]1(C)CC[C@]2(C)[C@H]3CC[C@@H]4[C@@]5(COC[C@@]4(C)[C@@H](OC[C@](C)(N)C(C)(C)C)[C@H](n4ncnc4-c4ccncc4)C5)C3=CC[C@@]2(C)[C@@H]1C(=O)O [SCY-078, (1S,4aR,6aS,7R,8R,10aR,10bR,12aR,14R,15R)-15-[[(2R)-2-amino-2,3,3-trimethylbutyl]oxy]-8-[(1R)-1,2-dimethylpropyl]-14-[5-(4-pyridinyl)-1H-1,2,4-triazol-1-yl]-1,6,6a,7,8,9,10,10a,10b,11,12,12a-dodecahydro-1,6a,8,10a-tetramethyl-4H-1,4a-propano-2H-phenanthro[1,2-c]pyran-7-carboxylic acid]
Solubility in water: not soluble in water
